Where two headings read alike, the source gives them in different places.
Key:
[1] = Phase I dose escalation: MTD and dose-limiting toxicity; format: in vivo, patients
Method: Docetaxel was initiated at 60 mg/m^2 IV infusion and increased to 75 mg/m^2 IV infusion in the absence of DLT.
A standard ‘3 + 3’ design was used. The MTD was defined as the highest dose of afatinib at which no more than one out of six patients experienced a DLT. Once the MTD was determined, a further 12 evaluable patients were included at the MTD level.

clinical = conditions: human, in vivo
HER2 = conditions: read-out: IC50 HER2; cited from earlier work
ErbB4 = conditions: read-out: IC50 ErbB4; cited from earlier work
[2] = Plasma pharmacokinetics (HPLC tandem-mass spectrometry); conditions: MTD group
[3] = human, in vivo
advanced NSCLC = conditions: cited from earlier work; for response rate: advanced NSCLC
[4] = docetaxel (day 1) followed by intermittent erlotinib (days 2–16 every 3 weeks), previously treated advanced NSCLC; cited from earlier work
advanced solid tumors = conditions: intermittent high-dose gefitinib given prior to docetaxel; cited from earlier work

For `CN(C)C/C=C/C(=O)Nc1cc2c(Nc3ccc(F)c(Cl)c3)ncnc2cc1O[C@H]1CCOC1` [afatinib], which “maximum tolerated dose (MTD) of afatinib” value ([1]; afatinib days 2–4 with docetaxel 75 mg/m^2 day 1, 3-week cycles) is on record?
The value was 90 mg/day.

What about the “MTD and recommended phase II dose of afatinib” value ([1]; once daily for 3 days following docetaxel 75 mg/m^2) of the same compound?
Its value is 90 mg.

What about the AUC(0-t) (clinical) of the same compound?
The AUC(0-t) was 0.995 µg·h/mL.

What about the Tmax (clinical) of the same compound?
The Tmax was 4.03 h.

And the AUC(0-t) (clinical; 75 mg/m2)?
The AUC(0-t) was 0.879 µg·h/mL.

And the Cmax (clinical; Afatinib Cmax, gMean)?
Its Cmax is 0.0714 µg/mL.

What about the Vd/F (clinical; Afatinib Vz/F, gMean) of the same compound?
Its Vd/F is 1500 L.

And the IC50 (HER2)?
Its IC50 is 14 nM.

And the Tmax ([2]; human, in vivo, Afatinib tmax, median, treatment cycle 1 (n = 13))?
The Tmax was 3 h.

What does the source list for `CC(=O)O[C@@]12CO[C@@H]1C[C@H](O)[C@@]1(C)C(=O)[C@H](O)C3=C(C)[C@@H](OC(=O)[C@H](O)[C@@H](NC(=O)OC(C)(C)C)c4ccccc4)C[C@@](O)([C@@H](OC(=O)c4ccccc4)[C@H]21)C3(C)C` [docetaxel]?
Docetaxel AUC0–24, gMean [3]: 2.68 µg·h/mL; Docetaxel AUC0–∞, gMean ratio cycle 2 to cycle 1 [3]: 118%; Docetaxel CL, gMean [3]: 682 mL/min; Docetaxel Cmax, gMean [3]: 2.2 µg/mL; Docetaxel Cmax, gMean ratio cycle 2 to cycle 1 [3]: 115%; Docetaxel VSS, gMean [3]: 487 L; Docetaxel Vz, gMean [3]: 1250 L; Docetaxel tmax, median [3]: 1.00 h; half-life (clinical): 20.9 h; AUC(0-t) (clinical; Docetaxel AUC0–24, gMean): 2.63 µg·h/mL; clearance (clinical; Docetaxel CL, gMean): 712 mL/min; Cmax (clinical; Docetaxel Cmax, gMean): 2.07 µg/mL; Vd (clinical; Docetaxel VSS, gMean): 488 L; Vd (clinical; Docetaxel Vz, gMean): 1290 L; Tmax (clinical; Docetaxel tmax, median): 1 h; AUC(0-inf) (clinical; iv, 75 mg/m2): 3.16 µg·h/mL; Docetaxel AUC0–∞, gMean ([2]; treatment cycle 2 (n = 8)): 3.26 µg·h/mL; Docetaxel t1/2, gMean ([2]; treatment cycle 2 (n = 8)): 21.1 h

With `C#Cc1cccc(Nc2ncnc3cc(OCCOC)c(OCCOC)cc23)c1` [erlotinib] as the compound, how does the response rate (advanced NSCLC; chemotherapy followed by erlotinib) read?
Its response rate is 28%.

And the objective response rate (advanced NSCLC; docetaxel (day 1) followed by intermittent erlotinib (days 2–16 every 3 weeks), previously treated advanced NSCLC)?
The objective response rate was 35%.

And the response rate (advanced NSCLC; high-dose erlotinib (days 1 and 2) with carboplatin and paclitaxel (day 3))?
Its response rate is 34%.

What about the response rate (advanced NSCLC; low-dose erlotinib, same schedule with carboplatin and paclitaxel) of the same compound?
The response rate was 18%.

And the “grade 3/4 neutropenia” value [4]?
Its value is 60%.

Which objective response rate (advanced solid tumors) does the source give for `COc1cc2ncnc(Nc3ccc(F)c(Cl)c3)c2cc1OCCCN1CCOCC1` [gefitinib] here?
The objective response rate was 11%.

— article PMC3644400 (Investigational New Drugs, 2012)
